From ChEMBL document CHEMBL3997821, “Design, synthesis and evaluation of novel pyrazolo-pyrimido[4,5-d]pyrimidine derivatives as potent antibacterial and biofilm inhibitors” (Bioorg Med Chem Lett, 2017)
≈ marks a conversion by molar mass, not a printed value.

Legend:
Type in all cases: functional
[1] = system: Micrococcus luteus; experiment: Bactericidal activity against Micrococcus luteus MTCC 2470 after 24 hrs by serial dilution method; conditions: MTCC 2470, 24 h
[2] = system: Staphylococcus aureus; experiment: Antibiofilm activity against Staphylococcus aureus MLS16 MTCC 2940 after 24 hrs by crystal violet staining based assay; conditions: MLS16 MTCC 2940, 24 h
[3] = system: Micrococcus luteus; experiment: Ratio of MBC to MIC for Micrococcus luteus MTCC 2470
[4] = system: Staphylococcus aureus; experiment: Bactericidal activity against Staphylococcus aureus MTCC 96 after 24 hrs by serial dilution method; conditions: MTCC 96, 24 h
[5] = system: Escherichia coli; experiment: Antibacterial activity against Escherichia coli MTCC 739 after 24 hrs by well diffusion method; conditions: MTCC 739, 24 h
[6] = system: Staphylococcus aureus; experiment: Antibacterial activity against Staphylococcus aureus MLS16 MTCC 2940 after 24 hrs by well diffusion method; conditions: MLS16 MTCC 2940, 24 h
[7] = system: Staphylococcus aureus; experiment: Ratio of MBC to MIC for Staphylococcus aureus MLS16 MTCC 2940
[8] = system: Pseudomonas aeruginosa; experiment: Antibacterial activity against Pseudomonas aeruginosa MTCC 2453 after 24 hrs by well diffusion method; conditions: MTCC 2453, 24 h
[9] = system: Micrococcus luteus; experiment: Antibiofilm activity against Micrococcus luteus MTCC 2470 after 24 hrs by crystal violet staining based assay; conditions: MTCC 2470, 24 h
[10] = system: Staphylococcus aureus; experiment: Ratio of MBC to MIC for Staphylococcus aureus MTCC 96
[11] = system: Staphylococcus aureus; experiment: Bactericidal activity against Staphylococcus aureus MLS16 MTCC 2940 after 24 hrs by serial dilution method; conditions: MLS16 MTCC 2940, 24 h
[12] = system: Micrococcus luteus; experiment: Antibacterial activity against Micrococcus luteus MTCC 2470 after 24 hrs by well diffusion method; conditions: MTCC 2470, 24 h
[13] = system: Bacillus subtilis; experiment: Ratio of MBC to MIC for Bacillus subtilis MTCC 121
[14] = system: Bacillus subtilis; experiment: Antibiofilm activity against Bacillus subtilis MTCC 121 after 24 hrs by crystal violet staining based assay; conditions: MTCC 121, 24 h
[15] = system: Raoultella planticola; experiment: Antibacterial activity against Klebsiella planticola MTCC 530 after 24 hrs by well diffusion method; conditions: MTCC 530, 24 h
[16] = system: Bacillus subtilis; experiment: Antibacterial activity against Bacillus subtilis MTCC 121 after 24 hrs by well diffusion method; conditions: MTCC 121, 24 h
[17] = system: Bacillus subtilis; experiment: Bactericidal activity against Bacillus subtilis MTCC 121 after 24 hrs by serial dilution method; conditions: MTCC 121, 24 h
[18] = system: Staphylococcus aureus; experiment: Antibiofilm activity against Staphylococcus aureus MTCC 96 after 24 hrs by crystal violet staining based assay; conditions: MTCC 96, 24 h
[19] = system: Staphylococcus aureus; experiment: Antibacterial activity against Staphylococcus aureus MTCC 96 after 24 hrs by well diffusion method; conditions: MTCC 96, 24 h

| IC50 [2] | MIC [5] | MIC [6] | MIC [8] | IC50 [9] | MIC [12] | IC50 [14] | MIC [16] | IC50 [18] | MIC [19] | SMILES | MBC [1] | Ratio [3] | MBC [4] | Ratio [7] | Ratio [10] | MBC [11] | Ratio [13] | MIC [15] | MBC [17] |
| --- | --- | --- | --- | --- | --- | --- | --- | --- | --- | --- | --- | --- | --- | --- | --- | --- | --- | --- | --- |
| 8.2 µg/mL (≈ 15.9 µM) | > 125 µg/mL | 15.6 µg/mL (≈ 30.2 µM) | > 125 µg/mL | 3.3 µg/mL (≈ 6.39 µM) | 7.8 µg/mL (≈ 15.1 µM) | 3.6 µg/mL (≈ 6.97 µM) | 7.8 µg/mL (≈ 15.1 µM) | 4.2 µg/mL (≈ 8.13 µM) | 7.8 µg/mL (≈ 15.1 µM) | Cc1ccc(-c2nn(-c3ccccc3)cc2C2c3c(n(C)c(=O)n(C)c3=O)N=CN2c2ccc(C)cc2)cc1 (configuration not stated) | 15.6 µg/mL (≈ 30.2 µM) | 2 | 15.6 µg/mL (≈ 30.2 µM) | 2 | 2 | 15.6 µg/mL (≈ 30.2 µM) | 2 | > 125 µg/mL | 31.2 µg/mL (≈ 60.4 µM) |
| – | > 125 µg/mL | 15.6 µg/mL (≈ 29.5 µM) | > 125 µg/mL | – | 15.6 µg/mL (≈ 29.5 µM) | – | 15.6 µg/mL (≈ 29.5 µM) | – | 31.2 µg/mL (≈ 59 µM) | Cn1c2c(c(=O)n(C)c1=O)C(c1cn(-c3ccccc3)nc1-c1cccs1)N(c1ccc(Cl)cc1)C=N2 (configuration not stated) | 31.2 µg/mL (≈ 59 µM) | – | 31.2 µg/mL (≈ 59 µM) | – | – | 31.2 µg/mL (≈ 59 µM) | – | > 125 µg/mL | 31.2 µg/mL (≈ 59 µM) |
| – | > 125 µg/mL | > 125 µg/mL | > 125 µg/mL | – | > 125 µg/mL | – | > 125 µg/mL | – | > 125 µg/mL | Cn1c2c(c(=O)n(C)c1=O)C(c1cn(-c3ccccc3)nc1-c1ccc(Cl)cc1)N(c1ccccc1)C=N2 (configuration not stated) | – | – | – | – | – | – | – | > 125 µg/mL | – |
| – | > 125 µg/mL | > 125 µg/mL | > 125 µg/mL | – | 15.6 µg/mL (≈ 29 µM) | – | > 125 µg/mL | – | > 125 µg/mL | Cc1ccc(N2C=Nc3c(c(=O)n(C)c(=O)n3C)C2c2cn(-c3ccccc3)nc2-c2ccc(Cl)cc2)cc1 (configuration not stated) | 31.2 µg/mL (≈ 58.1 µM) | – | > 125 µg/mL | – | – | > 125 µg/mL | – | > 125 µg/mL | > 125 µg/mL |
| – | > 125 µg/mL | 15.6 µg/mL (≈ 29.7 µM) | > 125 µg/mL | – | 15.6 µg/mL (≈ 29.7 µM) | – | 31.2 µg/mL (≈ 59.5 µM) | – | 15.6 µg/mL (≈ 29.7 µM) | COc1ccc(N2C=Nc3c(c(=O)n(C)c(=O)n3C)C2c2cn(-c3ccccc3)nc2-c2cccs2)cc1 (configuration not stated) | 15.6 µg/mL (≈ 29.7 µM) | – | 31.2 µg/mL (≈ 59.5 µM) | – | – | 31.2 µg/mL (≈ 59.5 µM) | – | > 125 µg/mL | 31.2 µg/mL (≈ 59.5 µM) |
| – | > 125 µg/mL | > 125 µg/mL | > 125 µg/mL | – | > 125 µg/mL | – | > 125 µg/mL | – | > 125 µg/mL | Cn1c2c(c(=O)n(C)c1=O)C(c1cn(-c3ccccc3)nc1-c1ccccc1)N(c1ccc(Cl)cc1)C=N2 (configuration not stated) | 31.2 µg/mL (≈ 59.7 µM) | – | 62.5 µg/mL (≈ 120 µM) | – | – | 62.5 µg/mL (≈ 120 µM) | – | > 125 µg/mL | 62.5 µg/mL (≈ 120 µM) |
| – | > 125 µg/mL | > 125 µg/mL | > 125 µg/mL | – | > 125 µg/mL | – | > 125 µg/mL | – | > 125 µg/mL | COc1ccc(N2C=Nc3c(c(=O)n(C)c(=O)n3C)C2c2cn(-c3ccccc3)nc2-c2ccccc2)cc1 (configuration not stated) | – | – | – | – | – | – | – | > 125 µg/mL | – |
| – | > 125 µg/mL | 15.6 µg/mL (≈ 31.9 µM) | > 125 µg/mL | – | 7.8 µg/mL (≈ 16 µM) | – | 62.5 µg/mL (≈ 128 µM) | – | 31.2 µg/mL (≈ 63.9 µM) | Cn1c2c(c(=O)n(C)c1=O)C(c1cn(-c3ccccc3)nc1-c1ccccc1)N(c1ccccc1)C=N2 (configuration not stated) | – | – | – | – | – | – | – | > 125 µg/mL | – |
| – | > 125 µg/mL | > 125 µg/mL | > 125 µg/mL | – | > 125 µg/mL | – | > 125 µg/mL | – | > 125 µg/mL | Cn1c2c(c(=O)n(C)c1=O)C(c1cn(-c3ccccc3)nc1-c1ccc(Cl)cc1)N(c1ccc(Cl)cc1)C=N2 (configuration not stated) | – | – | – | – | – | – | – | > 125 µg/mL | – |
| – | > 125 µg/mL | > 125 µg/mL | > 125 µg/mL | – | > 125 µg/mL | – | > 125 µg/mL | – | > 125 µg/mL | Cc1ccc(-c2nn(-c3ccccc3)cc2C2c3c(n(C)c(=O)n(C)c3=O)N=CN2c2cccc([N+](=O)[O-])c2)cc1 (configuration not stated) | – | – | – | – | – | – | – | > 125 µg/mL | – |
| – | > 125 µg/mL | > 125 µg/mL | > 125 µg/mL | – | > 125 µg/mL | – | > 125 µg/mL | – | > 125 µg/mL | Cn1c2c(c(=O)n(C)c1=O)C(c1cn(-c3ccccc3)nc1-c1ccc(Cl)cc1)N(c1cccc([N+](=O)[O-])c1)C=N2 (configuration not stated) | – | – | – | – | – | – | – | > 125 µg/mL | – |
| – | > 125 µg/mL | > 125 µg/mL | > 125 µg/mL | – | > 125 µg/mL | – | > 125 µg/mL | – | > 125 µg/mL | Cn1c2c(c(=O)n(C)c1=O)C(c1cn(-c3ccccc3)nc1-c1ccc([N+](=O)[O-])cc1)N(c1ccc(Cl)cc1)C=N2 (configuration not stated) | – | – | – | – | – | – | – | > 125 µg/mL | – |
